Data set [1] concerns T. cruzi Tulahuen CL2 (benznidazole-sensitive). The experiment in a line: Antitrypanosomal activity (Chagas), β-galactosidase readout on MRC-5 cells. It counts as cell-based, Trypanosoma cruzi. Conditions: for IC50: Trypanosoma cruzi, MRC5, 168 h, read-out: T. cruzi IC50. The protocol: (§1) The integrated panel of microbial screens and standard screening methodologies were adopted as previously described. All assays were performed in triplicate, at the Laboratory of Microbiology, Parasitology and Hygiene at the University of Antwerp, Belgium. […] The selectivity antiprotozoal potential was assessed by simultaneous evaluation of cytotoxicity on a fibroblast (MRC-5) cell line.
(§2) About 1.5 × 10^4 trypomastigotes/well were added to each well and parasite growth was assessed after 72 h at 37 °C by adding resazurin [30]. […] The color reaction was read at 540 nm after 4 h and absorbance values were expressed as a percentage of the blank controls.

In data set [2] the test system is Chloroquine-resistant P. falciparum 2/K 1-strain (erythrocytic schizonts). The experiment in a line: Antiplasmodial activity (Malstat method). Conditions: for IC50: Plasmodium falciparum, 72 h, read-out: P. falciparum IC50. In kind it is cell-based, Plasmodium falciparum. The protocol: as §1
Chloroquine-resistant P. falciparum 2/K 1-strain was cultured in human erythrocytes O^+ at 37 °C under a low oxygen atmosphere (3% O2, 4% CO2, and 93% N2) in RPMI-1640, supplemented with 10% human serum. Infected human red blood cells (200 μL, 1% parasitaemia, 2% haematocrit) were added to each well and incubated for 72 h. After incubation, test plates were frozen at −20 °C. Parasite multiplication was measured by the Malstat method.

The subject of data set [3] is L.infantum MHOM/MA(BE)/67 amastigotes. The experiment in a line: Antileishmanial activity, intracellular amastigotes in primary peritoneal mouse macrophages. Conditions: for IC50: Leishmania infantum, Macrophage, 120 h, read-out: L. infantum IC50. It counts as cell-based, Leishmania infantum. The protocol:
as §1
L.infantum MHOM/MA(BE)/67 amastigotes were collected from the spleen of an infected donor hamster and used to infect primary peritoneal mouse macrophages. To determine in vitro antileishmanial activity, 3 × 10^4 macrophages were seeded in each well of a 96-well plate. After 2 days outgrowth, 5 × 10^5 amastigotes/well were added and incubated for 2 h at 37 °C. Pre-diluted plant extracts were subsequently added and the plates were further incubated for 5 days at 37 °C and 5% CO2. Parasite burdens (mean number of amastigotes/macrophage) were microscopically assessed after Giemsa staining, and expressed as a percentage of the blank controls without plant extract.

Data set [4] concerns Trypanosoma brucei Squib-427 strain (suramin-sensitive) trypomastigotes. Nature of the data set: Antitrypanosomal activity, resazurin readout. Conditions: for IC50: Trypanosoma brucei, 72 h, read-out: T. brucei IC50; for T. brucei SI (selectivity index): versus MRC-5 cytotoxicity. In kind it is cell-based. On the procedure: as §1, §2
(Alamar Blue is a resazurin reagent that responds to reducing activity.)

Data set [5] is described as follows: Cytotoxicity assay (resazurin). It counts as cell-based. Conditions: human, MRC-5 cells. The protocol:
as §1
For the assay, 10^4 MRC-5 cells/well were seeded onto the test plates containing the pre-diluted sample and incubated at 37 °C and 5% CO2 for 72 h. Cell viability was assessed fluorimetrically after 4 h of addition of resazurin. Fluorescence was measured (excitation 550 nm, emission 590 nm) and the results were expressed as % reduction in cell viability compared to control.

Data set [6] has as its system all protozoa species (P. falciparum, L. infantum, T. cruzi, T. brucei). The experiment in a line: Antiprotozoal activity, statement pooled over all protozoa species tested. It counts as cell-based. Conditions: for IC50: pooled over P. falciparum, L. infantum, T. cruzi, T. brucei, read-out: IC50 against all protozoa species. On the procedure: as §1
Setting [7] is: Tulahuen CL2 on MRC-5 cells, 7 days.
The mark [8] stands for this setting: chloroquine-resistant 2/K 1-strain.
[9] abbreviates: intracellular amastigotes in mouse macrophages, 5 days.
[10] abbreviates: MRC-5 SV2 cells (fibroblast cell line).

Structures are written as SMILES. “Also recorded” adds a separate entry of the source. Where two headings read alike, the source gives them in different places.

The record followed here is paper PMC4057736, “In Vitro Antiprotozoal Activity of Abietane Diterpenoids Isolated from Plectranthus barbatus Andr” (International Journal of Molecular Sciences, 2014).

The IC50 is the point on the concentration scale where inhibition reaches its midpoint.

Consider `O=C(Cn1ccnc1[N+](=O)[O-])NCc1ccccc1` [Benznidazole, reference compound], for which the IC50 in data set [1] (setting [7]) worked out at 2.5 ± 0.6 µM.

On to `CCN(CC)CCCC(C)Nc1ccnc2cc(Cl)ccc12` (stereo not shown) [Chloroquine, reference compound], for which the IC50 in data set [2] came to 0.04 ± 0.01 µM.

As for `CC(C)c1ccc2c(c1)CC[C@H]1C(C)(C)CCC[C@]21C` [Compound (1), dehydroabietane], the IC50 is 124 ± 4.7 µM in data set [2] (setting [8]); over 237 µM in data set [3] (setting [9]); over 237 µM in data set [1] (setting [7]); over 237 µM in data set [4] (Squib-427 trypomastigotes); over 100 µM in data set [6]. In addition, in data set [3] (versus MRC-5 cytotoxicity), the “L. infantum SI (selectivity index)” value is on record as over 1. In addition, in data set [1] (versus MRC-5 cytotoxicity), the “T. cruzi SI (selectivity index)” value was over 1. Also, the “T. brucei SI (selectivity index)” value in data set [4] is reported as over 1. This compound had a concentration for half-maximal inhibition (IC50) at 72 h in data set [5] (setting [10]) of over 237 µM. Besides, in data set [6] (overall verdict over all protozoa tested), the “antiprotozoal activity (in words)” value is “no activity against all protozoal strains; also recorded: no antiprotozoal potential”.

Turning to `CC(C)C1=CC2=C(O)C(O)=C3C(C)(C)CCC[C@]3(C)C2=C(O)C1=O` [Compound (2), 5,6-didehydro-7-hydroxy-taxodone], the IC50 in data set [2] worked out at 9.2 ± 0.6 µM; in data set [3], 25.7 ± 1.5 µM; in data set [1] (TULAHUEN) it was 25.7 ± 1.5 µM; in data set [4] (Squib-427 trypomastigotes), 1.9 ± 0.4 µM. Also, the IC50 at 72 h in data set [5] (setting [10]) was 96.2 ± 5.8 µM.

On to `CC(C)C1=CC2=CC(=O)[C@H]3C(C)(C)CCC[C@]3(C)C2=C(O)C1=O` [Compound (3), taxodione], for which the IC50 in data set [2] (setting [8]) is 8.5 ± 0.7 µM; in data set [3] (setting [9]) it was 25.7 ± 2.3 µM; in data set [1] (setting [7]), 25.7 ± 2.3 µM; in data set [4] (Squib-427 trypomastigotes), 9.8 ± 0.7 µM; in data set [6], 6 to 31.6 µM. The “P. falciparum SI (selectivity index)” value in data set [2] (versus MRC-5 cytotoxicity) was found to be 2.6. Further, the “T. brucei SI (selectivity index)” value in data set [4] came out at 2.3. In addition, the IC50 at 72 h in data set [5] (setting [10]) came to 22.6 ± 1.3 µM.

Turning to `CC(C)c1cc2c(c(O)c1O)C13CCCC(C)(C)C1CC2OC3` (stereo not shown) [Compound (4), 20-deoxocarnosol], the IC50 in data set [2] (setting [8]) is 11.1 ± 0.6 µM; in data set [3] (setting [9]), 25.6 ± 1.2 µM; in data set [1] (setting [7]), 25.6 ± 1.2 µM; in data set [4] (Squib-427 trypomastigotes), 6 ± 0.8 µM; in data set [6] it was 6 to 31.6 µM. In data set [5], this compound showed an IC50 at 72 h of 6 ± 0.3 µM.

`CC(C)c1cc2c(c(O)c1O)C13CCCC(C)(C)C1C(O)C2OC3` (stereo not drawn) [Compound (5), 6α,11,12,-trihydroxy-7β,20-epoxy-8,11,13-abietatriene]: the IC50 in data set [2] (setting [8]) was 31.6 ± 1.9 µM; in data set [3] (setting [9]), 24.4 ± 3.2 µM; in data set [1] (setting [7]) it was 24.4 ± 3.2 µM; in data set [4] (Squib-427 trypomastigotes), 15.9 ± 1.4 µM; in data set [6] it was 6 to 31.6 µM. Further, in data set [5] (setting [10]), the IC50 at 72 h is 5.7 ± 0.9 µM.

Take `Nc1nc(N)nc(Nc2ccc([As]3SCC(CO)S3)cc2)n1` (stereo not shown) [Melarsoprol, reference compound]: in data set [4], the IC50 amounted to 0.005 ± 0.001 µM.

Turning to `CCCCCCCCCCCCCCCCOP(=O)([O-])OCC[N+](C)(C)C` [Miltefosine, reference compound], the concentration for half-maximal inhibition (IC50) in data set [3] (setting [9]) amounted to 2.4 ± 0.8 µM.

In data set [5] (setting [10]), `CC/C(=C(\c1ccccc1)c1ccc(OCCN(C)C)cc1)c1ccccc1` [Tamoxifen, reference compound] returned an IC50 at 72 h of 10.5 ± 2.5 µM.
